From ChEMBL document CHEMBL4627274, “Optimized plant compound with potent anti-biofilm activity across gram-negative species” (Bioorg Med Chem, 2020)
Calls of active or inactive are those of the source. No cut-off for these calls is given here.

Tests used:
Pseudomonas aeruginosa [1] = test: Inhibition of swarming motility of Pseudomonas aeruginosa clinical isolates incubated for 16 to 20 hrs; type: functional
Escherichia coli [2] = test: Inhibition of swarming motility of Escherichia coli clinical isolates incubated for 16 to 20 hrs; type: functional
Burkholderia cepacia = test: Inhibition of swarming motility of Burkholderia cepacia clinical isolates incubated for 16 to 20 hrs; type: functional
Salmonella enterica = test: Inhibition of swarming motility of Salmonella enterica clinical isolates incubated for 16 to 20 hrs; type: functional
Pseudomonas aeruginosa [3] = test: Inhibition of swarming motility of Pseudomonas aeruginosa HONKR at 10 ug incubated for 18 to 24 hrs; type: functional, organism-based
Pseudomonas aeruginosa [4] = test: Inhibition of swarming motility of Pseudomonas aeruginosa HONKR at 16 ug/mL incubated for 16 to 20 hrs relative to control; type: functional
Escherichia coli [5] = test: Inhibition of swarming motility of Escherichia coli PY31 at 16 ug/mL incubated for 16 to 20 hrs relative to control; type: functional
Escherichia coli [6] = test: Antibiofilm activity against Escherichia coli UTI89 incubated for 2 days at 23 degC followed by 1 day incubation at RT; type: functional
Pseudomonas syringae = test: Inhibition of swarming motility of Pseudomonas syringae incubated for 16 to 20 hrs; type: functional
Xanthomonas campestris = test: Inhibition of swarming motility of Xanthomonas campestris incubated for 16 to 20 hrs; type: functional
[7] = system: Pectobacterium atrosepticum; test: Inhibition of swarming motility of Pectobacterium atrosepticum incubated for 16 to 20 hrs; type: functional
Pseudomonas aeruginosa [8] = test: Downregulation of pilX gene expression in Pseudomonas aeruginosa by lacZ reporter gene based beta-galactosidase assay; type: functional, organism-based
Pseudomonas aeruginosa [9] = test: Potentiation of tobramycin-induced inhibition of swarming motility in Pseudomonas aeruginosa HONKR assessed as reduction in biofilm formation at 0.125 ug/mL; type: functional, organism-based
M14 = test: Cytotoxicity against human M14 cells assessed as reduction in cell viability at < 10 uM; type: cell-based
Pseudomonas aeruginosa [10] = test: Potentiation of colistin-induced inhibition of swarming motility in Pseudomonas aeruginosa HONKR assessed as reduction in biofilm formation at 0.125 ug/mL; type: functional, organism-based
Pseudomonas aeruginosa [11] = test: Down regulation of pilA expression in swarm plate cultured Pseudomonas aeruginosa PAO1 incubated for 19 to 24 hrs by Western blot analysis; type: functional, organism-based
Pseudomonas aeruginosa [12] = test: Down regulation of pilY1 expression in swarm plate cultured Pseudomonas aeruginosa PAO1 incubated for 19 to 24 hrs by Western blot analysis; type: functional, organism-based

## NC[C@H]1O[C@H](O[C@H]2[C@H](O)[C@@H](O[C@H]3O[C@H](CO)[C@@H](O)[C@H](N)[C@H]3O)[C@H](N)C[C@@H]2N)[C@H](N)C[C@@H]1O [TOBRAMYCIN]
Pseudomonas aeruginosa [1]
  INH: 4 µg/mL
Escherichia coli [2]
  INH: 16 µg/mL
Burkholderia cepacia
  INH: >64 µg/mL
Salmonella enterica
  INH: 8 µg/mL
Pseudomonas aeruginosa [3]
  inhibition: inactive

## CC1(C)CC[C@]2(C(=O)O)CC[C@]3(C)C(=CC[C@@H]4[C@@]5(C)Cc6c(n[nH]c6N)C(C)(C)[C@@H]5CC[C@]43C)[C@@H]2C1
Pseudomonas aeruginosa [4]
  inhibition at 16 µg/mL: > 90%
Escherichia coli [5]
  inhibition at 16 µg/mL: > 90%
Escherichia coli [6]
  MBIC50: 4 µg/mL
Pseudomonas aeruginosa [1]
  INH: 1 µg/mL
Escherichia coli [2]
  INH: 1 µg/mL
Burkholderia cepacia
  INH: 0.25 µg/mL
Salmonella enterica
  INH: 1 µg/mL
Pseudomonas syringae
  INH: <0.5 µg/mL
Xanthomonas campestris
  INH: <0.5 µg/mL
[7]
  INH: <0.5 µg/mL
Pseudomonas aeruginosa [8]
  Activity: Active
Pseudomonas aeruginosa [9]
  Activity: Active
M14
  Activity: Non-Toxic
Pseudomonas aeruginosa [10]
  Activity: Active
Pseudomonas aeruginosa [11]
  Activity: Dose-dependent effect
Pseudomonas aeruginosa [12]
  Activity: Dose-dependent effect
